Where a name gives a salt, the structure may show the parent alone.
Experiments:
[1] = system: erythrocyte phospholipids; assay: DHA content of erythrocyte phospholipids in healthy volunteers after 3 weeks oral treatment; type: in vivo; settings: 1 g of DHA daily for 3 weeks
Description: Considering that the phospholipid class of the erythrocyte membrane, along with the degree of unsaturation of the acyl chains, does condition red cell deformability and blood viscosity, it has been conducted a study to ascertain the effect of the salts in question on erythrocyte phospholipid composition, which we describe hereunder in illustration. 8 healthy volunteers were then selected and divided into 4 groups which were treated by oral route for 3 weeks with a daily quantity of DHA 1.0 g in the form of ethyl ester (1.1 g), sodium salt (1.1 g), choline salt (1.3 g) and ethanolamine salt (1.2 g). Before and after treatment samples of venous blood were collected and sodium citrate added, then the erythrocytes were isolated, washed for 3 times with saline solution (0.15M NaCl, pH 7.4) at 0° and again suspended in saline solution. 1-ml samples from the red cell suspensions were treated with 5 ml of methanol for 10 minutes then with 5 ml of chloroform containing 2 mg/100 ml of the antioxidant 2,6-di-tert.butyl-4-methyl-phenol (BHT). The organic solvents originating from 3 extractions were evaporated to dryness and the residue, formed by the erythrocyte phospholipids, was subjected to bidimensional chromatography according to Turner J. D. and Rouser G., Anal. Biochem. (Part 1--Erythrocyte lipids), 38, 423, 1970 to separate the different phospholipid classes: silica gel 60H (90 g, Merck) plus Fluorisil (7.2 g, BDH Chemicals) plates were used; the solvent systems consisted of chloroform:methanol: 25% ammonia:water (90:54:5.5:5.5) and chloroform:methanol:acetone:acetic acid:water (60:20:80:20:10). The various classes were identified against standard phospolipids (Sigma Chemical). A sample of total phospholipids and the various stains isolated were treated with 1.5 ml of boron trifluoride-methanol for 1 h at 65° C. under nitrogen, to prepare the methyl esters of the acids contained in the phospholipids to undergo gas-chromatography. To this end a Hewlet-Packard 5890 gas-chromatograph was used, fitted with a ionisation flame detector and with an HPl column 25 m in length and 0.31 mm in int. diameter; elium was used as the carrier gas, the injection port temperature was 320° C. and the detector temperature 340° C. The chamber temperature was programmed at 170° C. for 1 min., then increased by 4°°C./min up to 250° C. and kept at this temperature for 15 minutes.

water solubility = type: physicochemical
[2] = system: thrombus growth rate induced by ADP in the hamster microvascular system; assay: in vivo antithrombotic action: growth rate of thrombus induced by ADP in hamster microvascular system; parameters: species or system hamster (Mesocricetus auratus); settings: oral; for percentage reduction in ADP-induced thrombus growth rate, of the order of max.: maximum; for antithrombotic activity (in words): 10 days
Description: Considered however that this action is not fully indicative of the possible therapeutic effects of a drug, we measured the in vivo effect of the new salts in extremely significant tests, by determining for instance, their effect on growth rate of a thrombus induced by a known aggregatory agent (adenosine diphosphate; ADP) in the hamster microvascular system (in vivo antithrombotic action).
(§1) In the course of a typical experiment, male hamsters of the Mesocricetus auratus genus, weighing 95-115 g, were acclimatized for 1 week in the laboratory before starting the study, then semi-chronically treated by oral route, for 10 consecutive days with the products under examination. More precisely, the animals were divided into 4 groups: group I received the vehicle alone, group II received DHA ethyl ester 100 mg/kg (equivalent to DHA 92 mg/kg), group III and IV were given DHA 50 mg/kg in the form of ethanolamine salt (59.3 mg/kg) and choline salt (65.7 mg/kg respectively).One hour following the last dose the animals were anaesthetized with sodium pentobarbitone (90 mg/kg, i.p.), the cheek pouch everted with a cotton wool bud and the upper layer and the underlying a vascular connective tissue removed with ophthalmic scissors to expose the lower vascular layer which was then bathed with saline solution and examined under a Leitz Dialux microscope (magnification×250).
Evaluation of the antithrombotic activity requires measuring the growth rate of a thrombus (white body) in the microcirculation induced by the iontophoresis of ADP from a micropipette through the vessel wall. A micropipette of diameter 12μ was filled with 10^-2 M solution of ADP connected with a silver/silver chloride reference electrode placed in the animal's mouth and applied to a venule of diameter 16-40μ. By applying a negative potential to the micropipette, ADP (2×10^-14moles per second) was injected which caused the formation of a white body (platelet thrombus) gradually growing from the wall of the venule. The growth rate of the thrombus was determined by the time taken for 30%, 50% and 90% of the white body to form, 100% referring to total occlusion of the vessel with stasis. When the current was switched off, the white body rapidly embolised and no new white bodies formed until the current was re-applied. Inhibition of thrombus growth rate was calculated by comparing measurements in treated animals with those obtained in the control group (Table 2).

[3] = system: arteriolar thrombus disaggregation; assay: thrombolytic action: arteriolar thrombus disaggregation time after electrical vascular damage in the hamster; type: in vivo, hamster (Mesocricetus auratus); settings: oral; for thrombolytic activity (in words): 10 days
Description: Through a different in vivo experimental model also the effect on thrombus formation and disaggregation was evaluated in the hamster, following vascular damage induced by electrical stimulation (thrombolytic action).
as §1
For the evaluation of the thrombolytic activity a micropipette was filled with 1.0M potassium chloride, applied to an arteriole of diameter 40-60μ and connected to a reference electrode placed in the animal's mouth. A negative potential was applied for 5 seconds using a Grass S48 stimulator to produce a current of 20-30 μA. A second micropipette containing 10^-2 M ADP was applied to the site of electrical damage and a negative potential applied, for 3 seconds. After the current was switched off, the time taken for the resultant thrombus to form and to disaggregate (about 40 seconds) was recorded using a stopwatch. The process of ADP stimulation of the arteriole damaged site was repeated several times and the mean was recorded of the values obtained over one hour and compared with that of the control animals.
The percentage change in the persistence of the thrombus adhering to the damaged site in the treated and untreated animals is therefore an index of the thrombolytic activity of the drug (Table 3).

[4] = 60 minutes post-dose, equiv. to DHA 50 mg/kg × 10 days
[5] = 70 minutes post-dose, equiv. to DHA 50 mg/kg × 10 days
[6] = 80 minutes post-dose, equiv. to DHA 50 mg/kg × 10 days
[7] = 90 minutes post-dose, equiv. to DHA 50 mg/kg × 10 days
[8] = 100 minutes post-dose, equiv. to DHA 50 mg/kg × 10 days
[9] = 110 minutes post-dose, equiv. to DHA 50 mg/kg × 10 days
[10] = 120 minutes post-dose, equiv. to DHA 50 mg/kg × 10 days
[11] = equiv. to DHA 50 mg/kg × 10 days
[12] = 60-70 minutes post-dose, equiv. to DHA 50 mg/kg × 10 days
[13] = 70-80 minutes post-dose, equiv. to DHA 50 mg/kg × 10 days
[14] = 80-90 minutes post-dose, equiv. to DHA 50 mg/kg × 10 days
[15] = 90-100 minutes post-dose, equiv. to DHA 50 mg/kg × 10 days
[16] = 100-110 minutes post-dose, equiv. to DHA 50 mg/kg × 10 days
[17] = 110-120 minutes post-dose, equiv. to DHA 50 mg/kg × 10 days
[18] = maximum, equiv. to DHA 50 mg/kg × 10 days

Row | Compound | water solubility (water solubility) | Percentage reduction, as compared to the controls, of thrombus growth rate induced by ADP [2, 4] [%] | Percentage reduction, as compared to the controls, of thrombus growth rate induced by ADP [2, 5] [%] | Percentage reduction, as compared to the controls, of thrombus growth rate induced by ADP [2, 6] [%] | Percentage reduction, as compared to the controls, of thrombus growth rate induced by ADP [2, 7] [%] | Percentage reduction, as compared to the controls, of thrombus growth rate induced by ADP [2, 8] [%] | Percentage reduction, as compared to the controls, of thrombus growth rate induced by ADP [2, 9] [%] | Percentage reduction, as compared to the controls, of thrombus growth rate induced by ADP [2, 10] [%] | percentage reduction in ADP-induced thrombus growth rate, of the order of max. [2, 11] | antithrombotic activity (in words) [2] | Percent increase in DHA content of erythrocyte phospholipids as compared to baseline values: Phosphatidylcholine [1] [%] | Percent increase in DHA content of erythrocyte phospholipids as compared to baseline values: Phosphatidylethanolamine [1] [%] | Percent increase in DHA content of erythrocyte phospholipids as compared to baseline values: Total phospholipids [1] [%] | Percentage reduction, as compared to the controls, of arteriolar thrombus disaggregation time [3, 12] [%] | Percentage reduction, as compared to the controls, of arteriolar thrombus disaggregation time [3, 13] [%] | Percentage reduction, as compared to the controls, of arteriolar thrombus disaggregation time [3, 14] [%] | Percentage reduction, as compared to the controls, of arteriolar thrombus disaggregation time [3, 15] [%] | Percentage reduction, as compared to the controls, of arteriolar thrombus disaggregation time [3, 16] [%] | Percentage reduction, as compared to the controls, of arteriolar thrombus disaggregation time [3, 17] [%] | thrombolytic activity (in words) [3] | other results
1 | CC/C=C\C/C=C\C/C=C\C/C=C\C/C=C\C/C=C\CCC(=O)O [DHA sodium salt, reference compound] | – | – | – | – | – | – | – | – | – | – | – | – | – | – | – | – | – | – | – | – | Percent increase in DHA content of erythrocyte phospholipids as compared to baseline values: Phosphatidylcholine ([1]; sodium salt): 93%; Percent increase in DHA content of erythrocyte phospholipids as compared to baseline values: Phosphatidylethanolamine ([1]; sodium salt): 25%; Percent increase in DHA content of erythrocyte phospholipids as compared to baseline values: Total phospholipids ([1]; sodium salt): 75%
2 | CC/C=C\C/C=C\C/C=C\C/C=C\C/C=C\C/C=C\CCC(=O)O [DHA ethanolamine salt] | totally water-soluble | 16.5 | 29.8 | 32.2 | 33.2 | 26.6 | 25.0 | 22.3 | 33-34% | highly active | 113 | 70 | 103 | 30.3 | 34.2 | 34.5 | 38.1 | 30.4 | 29.8 | definitely more active, if given at the same doses | reduction in disaggregation time [3, 18]: 37-38%
3 | CC/C=C\C/C=C\C/C=C\C/C=C\C/C=C\CCCC(=O)O [EPA ethanolamine salt] | highly water-soluble | – | – | – | – | – | – | – | – | – | – | – | – | – | – | – | – | – | – | – | –
4 | CC/C=C\C/C=C\C/C=C\C/C=C\C/C=C\C/C=C\CCC(=O)OCC [DHA ethyl ester, reference compound] | – | – | – | – | – | – | – | – | – | moderately active | 77 | 10 | 56 | – | – | – | – | – | – | highly active | Percentage reduction, as compared to the controls, of thrombus growth rate induced by ADP ([2]; 60 minutes post-dose, 100 mg/kg × 10 days): 5.5%; Percentage reduction, as compared to the controls, of thrombus growth rate induced by ADP ([2]; 70 minutes post-dose, 100 mg/kg × 10 days): 12.5%; Percentage reduction, as compared to the controls, of thrombus growth rate induced by ADP ([2]; 80 minutes post-dose, 100 mg/kg × 10 days): 26.3%; Percentage reduction, as compared to the controls, of thrombus growth rate induced by ADP ([2]; 90 minutes post-dose, 100 mg/kg × 10 days): 17.4%; Percentage reduction, as compared to the controls, of thrombus growth rate induced by ADP ([2]; 100 minutes post-dose, 100 mg/kg × 10 days): 15.1%; Percentage reduction, as compared to the controls, of thrombus growth rate induced by ADP ([2]; 110 minutes post-dose, 100 mg/kg × 10 days): 8.7%; Percentage reduction, as compared to the controls, of thrombus growth rate induced by ADP ([2]; 120 minutes post-dose, 100 mg/kg × 10 days): 14.9%; Percentage reduction, as compared to the controls, of arteriolar thrombus disaggregation time ([3]; 60-70 minutes post-dose, 100 mg/kg × 10 days): 21.4%; Percentage reduction, as compared to the controls, of arteriolar thrombus disaggregation time ([3]; 70-80 minutes post-dose, 100 mg/kg × 10 days): 30.5%; Percentage reduction, as compared to the controls, of arteriolar thrombus disaggregation time ([3]; 80-90 minutes post-dose, 100 mg/kg × 10 days): 36.2%; Percentage reduction, as compared to the controls, of arteriolar thrombus disaggregation time ([3]; 90-100 minutes post-dose, 100 mg/kg × 10 days): 32.9%; Percentage reduction, as compared to the controls, of arteriolar thrombus disaggregation time ([3]; 100-110 minutes post-dose, 100 mg/kg × 10 days): 27.8%; Percentage reduction, as compared to the controls, of arteriolar thrombus disaggregation time ([3]; 110-120 minutes post-dose, 100 mg/kg × 10 days): 25.9%; percentage reduction in arteriolar thrombus disaggregation time ([3]; maximum, 100 mg/kg × 10 days): 36.2%
5 | CC/C=C\C/C=C\C/C=C\C/C=C\C/C=C\C/C=C\CCC(=O)O [DHA choline salt] | – | 15.6 | 35.4 | 28.3 | 34.2 | 20.8 | 20.2 | 24.7 | 33-34% | highly active | 146 | 38 | 102 | 31.6 | 32.8 | 35.4 | 37.7 | 28.6 | 29.1 | definitely more active, if given at the same doses | reduction in disaggregation time [3, 18]: 37-38%
6 | CC/C=C\C/C=C\C/C=C\C/C=C\C/C=C\CCCC(=O)O [EPA choline salt] | water-soiuble | – | – | – | – | – | – | – | – | – | – | – | – | – | – | – | – | – | – | – | –
